# Measured values from ChEMBL document CHEMBL3044961, “Rapid synthesis, characterization, anticancer and antimicrobial activity studies of substituted thiadiazoles and their dinucleating ligand metal complexes” (Med Chem Res, 2012).
# pIC50: −log10 of the molar value. Calls of active or inactive are those of the source. The calls are words filed in the database; no cut-off is given here.
# Tests used:
# Enterococcus faecalis = assay: Antibacterial activity against Enterococcus faecalis at 1 ug/ml after 24 hr by well diffusion method; format: functional; conditions: for zone of inhibition at 1 µg/mL: read-out: IZ
# Klebsiella pneumoniae = assay: Antibacterial activity against Klebsiella pneumoniae at 1 ug/ml after 24 hr by well diffusion method; format: functional; conditions: read-out: IZ
# Micrococcus luteus = assay: Antibacterial activity against Micrococcus luteus at 1 ug/ml after 24 hr by well diffusion method; format: functional; conditions: for zone of inhibition at 1 µg/mL: read-out: IZ
# Lasiodiplodia theobromae = assay: Antifungal activity against Lasiodiplodia theobromae at 1 ug/ml after 48 hr by well diffusion method; format: functional; conditions: for zone of inhibition at 1 µg/mL: read-out: IZ
# Rhizoctonia solani = assay: Antifungal activity against Rhizoctonia solani at 1 ug/ml after 48 hr by well diffusion method; format: functional; conditions: for zone of inhibition at 1 µg/mL: read-out: IZ
# Aspergillus flavus = assay: Antifungal activity against Aspergillus flavus at 1 ug/ml after 48 hr by well diffusion method; format: functional; conditions: read-out: IZ
# Bacillus subtilis = assay: Antibacterial activity against Bacillus subtilis at 1 ug/ml after 24 hr by well diffusion method; format: functional; conditions: read-out: IZ
# Streptococcus faecalis = assay: Antibacterial activity against Streptococcus faecalis at 1 ug/ml after 24 hr by well diffusion method; conditions: read-out: IZ
# Penicillium expansum = assay: Antifungal activity against Penicillium expansum at 1 ug/ml after 48 hr by well diffusion method; format: functional; conditions: read-out: IZ
# [1] = test system: Pectobacterium carotovorum; assay: Antibacterial activity against Pectobacterium carotovorum at 1 ug/ml after 24 hr by well diffusion method; format: functional; conditions: for zone of inhibition at 1 µg/mL: read-out: IZ
# Proteus vulgaris = assay: Antibacterial activity against Proteus vulgaris at 1 ug/ml after 24 hr by well diffusion method; format: functional; conditions: for zone of inhibition at 1 µg/mL: read-out: IZ
# Escherichia coli = assay: Antibacterial activity against Escherichia coli at 1 ug/ml after 24 hr by well diffusion method; format: functional; conditions: read-out: IZ
# U-937 = assay: Cytotoxicity against Homo sapiens (human) U937 cells after 96 hr by MTT assay; format: functional, cell-based; conditions: for pIC50: Homo sapiens, U-937, 96 h, read-out: IC50
# HL-60 = assay: Cytotoxicity against Homo sapiens (human) HL60 cells after 96 hr by MTT assay; format: functional, cell-based; conditions: for pIC50: Homo sapiens, HL-60, 96 h, read-out: IC50
SMILES,zone of inhibition at 1 µg/mL (Enterococcus faecalis) [mm],zone of inhibition at 1 µg/mL (Klebsiella pneumoniae) [mm],zone of inhibition at 1 µg/mL (Micrococcus luteus) [mm],zone of inhibition at 1 µg/mL (Lasiodiplodia theobromae) [mm],zone of inhibition at 1 µg/mL (Rhizoctonia solani) [mm],zone of inhibition at 1 µg/mL (Aspergillus flavus) [mm],zone of inhibition at 1 µg/mL (Bacillus subtilis) [mm],zone of inhibition at 1 µg/mL (Streptococcus faecalis) [mm],zone of inhibition at 1 µg/mL (Penicillium expansum) [mm],zone of inhibition at 1 µg/mL [1] [mm],zone of inhibition at 1 µg/mL (Proteus vulgaris) [mm],zone of inhibition at 1 µg/mL (Escherichia coli) [mm],pIC50 (U-937),pIC50 (HL-60),inhibition zone (IZ) (Rhizoctonia solani),inhibition zone (IZ) [1],other results
CCc1nnc(NN=C(C(C)=O)C(C)=O)s1,8,5,8,7,6,10,8,8,14,7,6,8,,,,,
CCOC(=O)/C(C#N)=N/Nc1nnc(C)s1,7,7,,7,,11,8,6,17,,8,7,4.71,4.66,inactive,inactive,inhibition zone (IZ) (Micrococcus luteus): inactive
O=c1[nH]cc(F)c(=O)[nH]1 [FLUOROURACIL],,,,,,,,,,,,,5.33,3.58,,,
Cc1nnc(NN=C(C#N)C#N)s1,9,8,7,8,,12,10,6,15,,10,6,,4.55,inactive,inactive,IC50 (U-937; u-937): Not Active
CCOC(=O)/C(C#N)=N/Nc1nnc(CC)s1,6,7,6,10,,12,9,5,16,,,9,,,inactive,inactive,inhibition zone (IZ) (Proteus vulgaris): inactive
NC(=O)NO [HYDROXYUREA],,,,,,,,,,,,,,,,,IC50 (HL-60; hl-60): Not Active
CC(=O)C(=NNc1nnc(C)s1)C(C)=O,8,8,,6,4,12,7,7,18,6,7,8,4.61,4.64,,,inhibition zone (IZ) (Micrococcus luteus): inactive
CCc1nnc(NN=C(C#N)C#N)s1,7,7,6,15,,12,11,8,16,7,,9,,,inactive,,inhibition zone (IZ) (Proteus vulgaris): inactive
O=NN(CCCl)C(=O)NCCCl [CARMUSTINE],,,,,,,,,,,,,4.91,4.52,,,
CC1(C)S[C@@H]2[C@H](NC(=O)[C@H](N)c3ccccc3)C(=O)N2[C@H]1C(=O)O [AMPICILLIN],,29,32,,29,31,30,30,35,31,33,28,,,,,inhibition zone (IZ) (Enterococcus faecalis): inactive; inhibition zone (IZ) (Lasiodiplodia theobromae): inactive
